According to ChEMBL document CHEMBL5543142, “Discovery of YFJ-36: Design, Synthesis, and Antibacterial Activities of Catechol-Conjugated β-Lactams against Gram-Negative Bacteria” (J Med Chem, 2024):

Columns and labels:
Escherichia coli [1] = experiment: Antibacterial activity against ESBL-producing multidrug-resistant Escherichia coli clinical isolate 14-1 assessed as inhibition of bacterial growth incubated for 18 to 20 hrs by two fold serial dilution assay; type: functional; settings: time 18-20 hrs
Escherichia coli [2] = experiment: Antibacterial activity against ESBL-producing multidrug-resistant Escherichia coli clinical isolate 14-2 assessed as inhibition of bacterial growth incubated for 18 to 20 hrs by two fold serial dilution assay; type: functional; settings: time 18-20 hrs
Escherichia coli [3] = experiment: Antibacterial activity against ESBL-producing multidrug-resistant Escherichia coli clinical isolate 14-4 assessed as inhibition of bacterial growth incubated for 18 to 20 hrs by two fold serial dilution assay; type: functional; settings: time 18-20 hrs
Klebsiella pneumoniae [4] = experiment: Antibacterial activity against KPC-2 producing multidrug-resistant Klebsiella pneumoniae clinical isolate 15-1 assessed as inhibition of bacterial growth incubated for 18 to 20 hrs by two fold serial dilution assay; type: functional; settings: time 18-20 hrs
Klebsiella pneumoniae [5] = experiment: Antibacterial activity against KPC-2 producing multidrug-resistant Klebsiella pneumoniae clinical isolate 15-2 assessed as inhibition of bacterial growth incubated for 18 to 20 hrs by two fold serial dilution assay; type: functional; settings: time 18-20 hrs
Klebsiella pneumoniae [6] = experiment: Antibacterial activity against KPC-2 producing multidrug-resistant Klebsiella pneumoniae clinical isolate 15-5 assessed as inhibition of bacterial growth incubated for 18 to 20 hrs by two fold serial dilution assay; type: functional; settings: time 18-20 hrs
Escherichia coli [7] = experiment: Antibacterial activity against Escherichia coli ATCC35218 assessed as inhibition of bacterial growth incubated for 18 to 20 hrs by two fold serial dilution assay; type: functional; settings: time 18-20 hrs
Pseudomonas aeruginosa [8] = experiment: Antibacterial activity against IMP-4 producing multidrug-resistant Pseudomonas aeruginosa clinical isolate 17-13 assessed as inhibition of bacterial growth incubated for 18 to 20 hrs by two fold serial dilution assay; type: functional; settings: time 18-20 hrs
Pseudomonas aeruginosa [9] = experiment: Antibacterial activity against IMP-4 producing multidrug-resistant Pseudomonas aeruginosa clinical isolate 17-1 assessed as inhibition of bacterial growth incubated for 18 to 20 hrs by two fold serial dilution assay; type: functional; settings: time 18-20 hrs
Pseudomonas aeruginosa [10] = experiment: Antibacterial activity against IMP-4 producing multidrug-resistant Pseudomonas aeruginosa clinical isolate 19-17 assessed as inhibition of bacterial growth incubated for 18 to 20 hrs by two fold serial dilution assay; type: functional; settings: time 18-20 hrs
Acinetobacter baumannii [11] = experiment: Antibacterial activity against OXA-23 producing multidrug-resistant Acinetobacter baumannii clinical isolate 17-2 assessed as inhibition of bacterial growth incubated for 18 to 20 hrs by two fold serial dilution assay; type: functional; settings: time 18-20 hrs
Acinetobacter baumannii [12] = experiment: Antibacterial activity against OXA-23 producing multidrug-resistant Acinetobacter baumannii clinical isolate 17-3 assessed as inhibition of bacterial growth incubated for 18 to 20 hrs by two fold serial dilution assay; type: functional; settings: time 18-20 hrs
Pseudomonas aeruginosa [13] = experiment: Antibacterial activity against IMP-4 producing multidrug-resistant Pseudomonas aeruginosa clinical isolate 19-5 assessed as inhibition of bacterial growth incubated for 18 to 20 hrs by two fold serial dilution assay; type: functional; settings: time 18-20 hrs
Pseudomonas aeruginosa [14] = experiment: Antibacterial activity against IMP-4 producing multidrug-resistant Pseudomonas aeruginosa clinical isolate 19-1 assessed as inhibition of bacterial growth incubated for 18 to 20 hrs by two fold serial dilution assay; type: functional; settings: time 18-20 hrs
Acinetobacter baumannii [15] = experiment: Antibacterial activity against OXA-23 producing multidrug-resistant Acinetobacter baumannii clinical isolate 17-5 assessed as inhibition of bacterial growth incubated for 18 to 20 hrs by two fold serial dilution assay; type: functional; settings: time 18-20 hrs
Acinetobacter baumannii [16] = experiment: Antibacterial activity against OXA-23 producing multidrug-resistant Acinetobacter baumannii clinical isolate 17-6 assessed as inhibition of bacterial growth incubated for 18 to 20 hrs by two fold serial dilution assay; type: functional; settings: time 18-20 hrs
Acinetobacter baumannii [17] = experiment: Antibacterial activity against OXA-23 producing multidrug-resistant Acinetobacter baumannii clinical isolate 17-7 assessed as inhibition of bacterial growth incubated for 18 to 20 hrs by two fold serial dilution assay; type: functional; settings: time 18-20 hrs
Acinetobacter baumannii [18] = experiment: Antibacterial activity against OXA-23 producing multidrug-resistant Acinetobacter baumannii clinical isolate 17-8 assessed as inhibition of bacterial growth incubated for 18 to 20 hrs by two fold serial dilution assay; type: functional; settings: time 18-20 hrs
Klebsiella pneumoniae [19] = experiment: Antibacterial activity against KPC-2 producing multidrug-resistant Klebsiella pneumoniae clinical isolate 15-3 assessed as inhibition of bacterial growth incubated for 18 to 20 hrs by two fold serial dilution assay; type: functional; settings: time 18-20 hrs
Escherichia coli [20] = experiment: Antibacterial activity against Escherichia coli NCTC-13353 assessed as inhibition of bacterial growth incubated for 18 to 20 hrs in presence of CAMHB medium by two fold serial dilution assay; type: functional; settings: time 18-20 hrs
Escherichia coli [21] = experiment: Antibacterial activity against Escherichia coli ATCC-35218 assessed as inhibition of bacterial growth incubated for 18 to 20 hrs in presence of CAMHB medium by two fold serial dilution assay; type: functional; settings: time 18-20 hrs
Klebsiella pneumoniae [22] = experiment: Antibacterial activity against Klebsiella pneumoniae ATCC BAA-1898 assessed as inhibition of bacterial growth incubated for 18 to 20 hrs in presence of CAMHB medium by two fold serial dilution assay; type: functional; settings: time 18-20 hrs
Escherichia coli [23] = experiment: Antibacterial activity against Escherichia coli NCTC-13353 assessed as inhibition of bacterial growth incubated for 18 to 20 hrs in presence of iron-depleted CAMHB medium by two fold serial dilution assay; type: functional; settings: time 18-20 hrs
Escherichia coli [24] = experiment: Antibacterial activity against Escherichia coli ATCC-35218 assessed as inhibition of bacterial growth incubated for 18 to 20 hrs in presence of iron-depleted CAMHB medium by two fold serial dilution assay; type: functional; settings: time 18-20 hrs
Klebsiella pneumoniae [25] = experiment: Antibacterial activity against Klebsiella pneumoniae ATCC BAA-1898 assessed as inhibition of bacterial growth incubated for 18 to 20 hrs in presence of iron-depleted CAMHB medium by two fold serial dilution assay; type: functional; settings: time 18-20 hrs
Escherichia coli [26] = experiment: Antibacterial activity against Escherichia coli ATCC-35218 infected in ICR mouse assessed as inhibition of bacterial growth at iv after 1 and 5 hour of post-infection measured after 7 days; type: functional; settings: ATCC-35218, 168 h, time 7 day
Acinetobacter baumannii [27] = experiment: Antibacterial activity against multidrug-resistant Acinetobacter baumannii BM-2023-D2-010 infected in ICR mouse assessed as inhibition of bacterial growth at iv after 1 and 5 hour of post-infection measured after 7 days; type: functional; settings: BM-2023-D2-010, 168 h, time 7 day
[28] = Plasma protein binding in mouse incubated for 35 mins by LC-MS/MS analysis; type: ADME, cell-free; settings: read-out: PPB (converted)
hERG (KCNH2) = hERG (KCNH2) (Homo sapiens, UniProt Q12809); experiment: Inhibition of hERG at 40 uM by whole cell Qpatch assay relative to control; type: toxicity
[29] = target: Voltage-gated inwardly rectifying potassium channel KCNH2 (Homo sapiens, UniProt Q12809); experiment: Inhibition of hERG by whole cell Qpatch assay; type: toxicity
Acinetobacter baumannii [30] = experiment: Antibacterial activity against multidrug-resistant Acinetobacter baumannii BM-2023-D2-010 infected in ICR mouse assessed as inhibition of bacterial growth by measuring its effective dose at iv after 1 and 5 hour of post-infection measured after 7 days; type: functional; settings: BM-2023-D2-010, 168 h, time 7 day

Chain of Voltage-gated inwardly rectifying potassium channel KCNH2 (Q12809 whole entry): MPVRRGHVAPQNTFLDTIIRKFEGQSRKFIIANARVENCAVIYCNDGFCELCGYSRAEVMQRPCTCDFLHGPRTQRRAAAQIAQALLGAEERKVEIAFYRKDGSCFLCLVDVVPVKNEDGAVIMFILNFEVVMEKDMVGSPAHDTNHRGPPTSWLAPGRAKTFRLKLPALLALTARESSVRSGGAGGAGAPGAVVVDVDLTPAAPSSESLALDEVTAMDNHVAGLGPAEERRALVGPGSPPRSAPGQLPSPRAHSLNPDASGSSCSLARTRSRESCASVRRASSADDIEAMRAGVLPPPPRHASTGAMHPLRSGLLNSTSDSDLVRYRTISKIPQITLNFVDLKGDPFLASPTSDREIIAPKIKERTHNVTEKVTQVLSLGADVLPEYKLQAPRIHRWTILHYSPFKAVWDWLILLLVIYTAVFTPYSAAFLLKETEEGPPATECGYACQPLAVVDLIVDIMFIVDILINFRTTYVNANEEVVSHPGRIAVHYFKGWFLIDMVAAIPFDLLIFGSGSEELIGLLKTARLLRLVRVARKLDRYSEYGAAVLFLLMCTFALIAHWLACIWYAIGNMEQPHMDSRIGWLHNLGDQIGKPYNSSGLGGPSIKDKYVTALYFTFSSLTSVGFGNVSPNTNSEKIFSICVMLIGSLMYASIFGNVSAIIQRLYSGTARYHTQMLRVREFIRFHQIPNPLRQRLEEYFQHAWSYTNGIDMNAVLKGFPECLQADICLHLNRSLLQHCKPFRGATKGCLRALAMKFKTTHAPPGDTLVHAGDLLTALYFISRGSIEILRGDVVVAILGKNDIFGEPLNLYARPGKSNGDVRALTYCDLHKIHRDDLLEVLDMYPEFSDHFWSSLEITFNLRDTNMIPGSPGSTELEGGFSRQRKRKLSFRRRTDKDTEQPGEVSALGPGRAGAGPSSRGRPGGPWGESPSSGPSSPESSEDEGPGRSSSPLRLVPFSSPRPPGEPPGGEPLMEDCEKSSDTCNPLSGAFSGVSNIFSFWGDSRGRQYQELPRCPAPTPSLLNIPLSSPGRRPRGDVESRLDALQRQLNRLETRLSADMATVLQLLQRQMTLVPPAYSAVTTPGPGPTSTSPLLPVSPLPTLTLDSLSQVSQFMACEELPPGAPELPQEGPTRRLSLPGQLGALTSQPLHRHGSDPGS
Chain of hERG (KCNH2) (Q12809 whole entry): as above

## Nc1nc(/C(=N/O[C@@H](C(=O)O)C2CCC(F)(F)CC2)C(=O)N[C@@H]2C(=O)N3C(C(=O)O)=C(CSCCNC(=O)c4ccc(O)c(O)c4Cl)CS[C@H]23)cs1.O=C(O)C(F)(F)F
Escherichia coli [1]
  MIC: 0.25 µg/mL
Escherichia coli [2]
  MIC: 0.5 µg/mL
Escherichia coli [3]
  MIC: 0.125 µg/mL
Klebsiella pneumoniae [4]
  MIC: 0.25 µg/mL
Klebsiella pneumoniae [5]
  MIC: 0.25 µg/mL
Klebsiella pneumoniae [6]
  MIC: 0.5 µg/mL
Escherichia coli [7]
  MIC: 0.25 µg/mL
Pseudomonas aeruginosa [8]
  MIC: ≤ 0.03 µg/mL
Pseudomonas aeruginosa [9]
  MIC: 8 µg/mL
Pseudomonas aeruginosa [10]
  MIC: 0.25 µg/mL
Acinetobacter baumannii [11]
  MIC: 0.5 µg/mL
Acinetobacter baumannii [12]
  MIC: 0.25 µg/mL
Pseudomonas aeruginosa [13]
  MIC: 1 µg/mL
Pseudomonas aeruginosa [14]
  MIC: 2 µg/mL
Acinetobacter baumannii [15]
  MIC: 0.25 µg/mL
Acinetobacter baumannii [16]
  MIC: 1 µg/mL
Acinetobacter baumannii [17]
  MIC: 0.5 µg/mL
Acinetobacter baumannii [18]
  MIC: 0.5 µg/mL
Klebsiella pneumoniae [19]
  MIC: 1 µg/mL
Escherichia coli [20]
  MIC: 1 µg/mL
Escherichia coli [21]
  MIC: 1 µg/mL
Klebsiella pneumoniae [22]
  MIC: 4 µg/mL
Escherichia coli [23]
  MIC: 0.25 µg/mL
Escherichia coli [24]
  MIC: ≤ 0.03 µg/mL
Klebsiella pneumoniae [25]
  MIC: 2 µg/mL
Escherichia coli [26]
  MIC: 0.06 µg/mL
Acinetobacter baumannii [27]
  MIC: 0.5 µg/mL
[28]
  fraction unbound at 35 min: 0.105
hERG (KCNH2)
  inhibition at 40 µM: 6.67%
[29]
  IC50: > 40 µM
Acinetobacter baumannii [30]
  ED50: 7.3 mg/kg
